Assay results from PubChem BioAssay (NCI).
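Method: 48-hour compound exposure of cells in 96-well plates, five concentrations, linear interpolation of endpoints. GI50 is the concentration that inhibits growth by half. Definition used: TGI = concentration required for complete inhibition of growth.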

Tests used:
Experiment in all cases: NCI anticancer screen, dose series, 48 h
MDA-MB-435 = system: MDA-MB-435
HT29 colon = system: HT29 colon
UACC-257 melanoma = system: UACC-257 melanoma
OVCAR-8 ovarian = system: OVCAR-8 ovarian
ACHN renal = system: ACHN renal
SF-295 CNS = system: SF-295 CNS
OVCAR-3 ovarian = system: OVCAR-3 ovarian
KM12 colon = system: KM12 colon
M14 melanoma = system: M14 melanoma
SK-MEL-5 melanoma = system: SK-MEL-5 melanoma
BT-549 breast = system: BT-549 breast
SK-MEL-28 melanoma = system: SK-MEL-28 melanoma
SF-539 CNS = system: SF-539 CNS
NCI-H226 lung = system: NCI-H226 lung
COLO 205 colon = system: COLO 205 colon
SF-268 CNS = system: SF-268 CNS
SN12C renal = system: SN12C renal
HS 578T breast = system: HS 578T breast
NCI-H522 lung = system: NCI-H522 lung
SNB-75 CNS = system: SNB-75 CNS
DU-145 prostate = system: DU-145 prostate
786-0 renal = system: 786-0 renal
T-47D breast = system: T-47D breast
RXF 393 renal = system: RXF 393 renal
OVCAR-5 ovarian = system: OVCAR-5 ovarian
UACC-62 melanoma = system: UACC-62 melanoma
NCI-H460 lung = system: NCI-H460 lung
IGROV1 ovarian = system: IGROV1 ovarian
EKVX NSCLC = system: EKVX NSCLC
MALME-3M melanoma = system: MALME-3M melanoma
CAKI-1 renal = system: CAKI-1 renal
SR leukemia = system: SR leukemia
HCT-116 colon = system: HCT-116 colon
SW-620 colon = system: SW-620 colon
CCRF-CEM leukemia = system: CCRF-CEM leukemia
HOP-62 NSCLC = system: HOP-62 NSCLC
SK-OV-3 ovarian = system: SK-OV-3 ovarian
OVCAR-4 ovarian = system: OVCAR-4 ovarian
U251 CNS = system: U251 CNS
HCT-15 colon = system: HCT-15 colon
PC-3 prostate = system: PC-3 prostate
NCI/ADR-RES ovarian = system: NCI/ADR-RES ovarian
K-562 leukemia = system: K-562 leukemia
SK-MEL-2 melanoma = system: SK-MEL-2 melanoma
MOLT-4 leukemia = system: MOLT-4 leukemia
HCC-2998 colon = system: HCC-2998 colon
A498 renal = system: A498 renal
HOP-92 NSCLC = system: HOP-92 NSCLC
NCI-H23 lung = system: NCI-H23 lung
MCF7 breast = system: MCF7 breast
RPMI-8226 leukemia = system: RPMI-8226 leukemia
MDA-MB-231 breast = system: MDA-MB-231 breast
LOX IMVI melanoma = system: LOX IMVI melanoma
SNB-19 CNS = system: SNB-19 CNS
UO-31 renal = system: UO-31 renal

Which results are given for `COc1ccc2c(C3(c4cn(C)c5cc(OC)ccc45)C(=O)Nc4ccc(Cl)cc43)cn(C)c2c1`?
GI50 (MDA-MB-435): 2.51 µM; TGI (MDA-MB-435): 7.77 µM; GI50 (HT29 colon): 3.22 µM; TGI (HT29 colon): 24 µM; GI50 (UACC-257 melanoma): 2.29 µM; TGI (UACC-257 melanoma): 8.56 µM; GI50 (OVCAR-8 ovarian): 3.09 µM; TGI (OVCAR-8 ovarian): > 100 µM; GI50 (ACHN renal): 3.32 µM; TGI (ACHN renal): > 100 µM; GI50 (SF-295 CNS): 5.16 µM; TGI (SF-295 CNS): > 100 µM; GI50 (OVCAR-3 ovarian): 4.31 µM; TGI (OVCAR-3 ovarian): 18.4 µM; GI50 (KM12 colon): 3.82 µM; TGI (KM12 colon): 21.1 µM; GI50 (M14 melanoma): 4.19 µM; TGI (M14 melanoma): > 100 µM; GI50 (SK-MEL-5 melanoma): 4.26 µM; TGI (SK-MEL-5 melanoma): 20.8 µM; GI50 (BT-549 breast): 5.26 µM; TGI (BT-549 breast): 83.4 µM; GI50 (SK-MEL-28 melanoma): 4.71 µM; TGI (SK-MEL-28 melanoma): > 100 µM; GI50 (SF-539 CNS): 9.19 µM; TGI (SF-539 CNS): > 100 µM; GI50 (NCI-H226 lung): 5.44 µM; TGI (NCI-H226 lung): > 100 µM; GI50 (COLO 205 colon): 1.95 µM; TGI (COLO 205 colon): 4.73 µM; GI50 (SF-268 CNS): 3.67 µM; TGI (SF-268 CNS): > 100 µM; GI50 (SN12C renal): 1.91 µM; TGI (SN12C renal): 4.63 µM; GI50 (HS 578T breast): 3.5 µM; TGI (HS 578T breast): 87.9 µM; GI50 (NCI-H522 lung): 3.38 µM; TGI (NCI-H522 lung): 12.7 µM; GI50 (SNB-75 CNS): 2.1 µM; TGI (SNB-75 CNS): > 100 µM; GI50 (DU-145 prostate): 4.84 µM; TGI (DU-145 prostate): > 100 µM; GI50 (786-0 renal): 4.12 µM; TGI (786-0 renal): 70 µM; GI50 (T-47D breast): 3.89 µM; TGI (T-47D breast): > 100 µM; GI50 (RXF 393 renal): 2.5 µM; TGI (RXF 393 renal): 7.87 µM; GI50 (OVCAR-5 ovarian): 5.37 µM; TGI (OVCAR-5 ovarian): > 100 µM; GI50 (UACC-62 melanoma): 3.49 µM; TGI (UACC-62 melanoma): 25 µM; GI50 (NCI-H460 lung): 3.29 µM; TGI (NCI-H460 lung): 11.7 µM; GI50 (IGROV1 ovarian): 2.82 µM; TGI (IGROV1 ovarian): > 100 µM; GI50 (EKVX NSCLC): 2.6 µM; TGI (EKVX NSCLC): > 100 µM; GI50 (MALME-3M melanoma): 3.62 µM; TGI (MALME-3M melanoma): 57.6 µM; GI50 (CAKI-1 renal): 2.04 µM; TGI (CAKI-1 renal): > 100 µM; GI50 (SR leukemia): 2.64 µM; TGI (SR leukemia): 6.83 µM; GI50 (HCT-116 colon): 3.15 µM; TGI (HCT-116 colon): 19.7 µM; GI50 (SW-620 colon): 4.67 µM; TGI (SW-620 colon): > 100 µM; GI50 (CCRF-CEM leukemia): 3.81 µM; TGI (CCRF-CEM leukemia): > 100 µM; GI50 (HOP-62 NSCLC): 4.2 µM; TGI (HOP-62 NSCLC): > 100 µM; GI50 (SK-OV-3 ovarian): 5.07 µM; TGI (SK-OV-3 ovarian): > 100 µM; GI50 (OVCAR-4 ovarian): 3.35 µM; TGI (OVCAR-4 ovarian): > 100 µM; GI50 (U251 CNS): 3.81 µM; TGI (U251 CNS): > 100 µM; GI50 (HCT-15 colon): 4.5 µM; TGI (HCT-15 colon): > 100 µM; GI50 (PC-3 prostate): 3.65 µM; TGI (PC-3 prostate): > 100 µM; GI50 (NCI/ADR-RES ovarian): 3.9 µM; TGI (NCI/ADR-RES ovarian): > 100 µM; GI50 (K-562 leukemia): 3.38 µM; TGI (K-562 leukemia): > 100 µM; GI50 (SK-MEL-2 melanoma): 2.97 µM; TGI (SK-MEL-2 melanoma): 6.55 µM; GI50 (MOLT-4 leukemia): 2.58 µM; TGI (MOLT-4 leukemia): 8.01 µM; GI50 (HCC-2998 colon): 6.35 µM; TGI (HCC-2998 colon): > 100 µM; GI50 (A498 renal): 4.5 µM; TGI (A498 renal): 88.7 µM; GI50 (HOP-92 NSCLC): 3.02 µM; TGI (HOP-92 NSCLC): 37.4 µM; GI50 (NCI-H23 lung): 3.99 µM; TGI (NCI-H23 lung): > 100 µM; GI50 (MCF7 breast): 3.09 µM; TGI (MCF7 breast): > 100 µM; GI50 (RPMI-8226 leukemia): 3.94 µM; TGI (RPMI-8226 leukemia): > 100 µM; GI50 (MDA-MB-231 breast): 1.53 µM; TGI (MDA-MB-231 breast): 5.1 µM; GI50 (LOX IMVI melanoma): 3.4 µM; TGI (LOX IMVI melanoma): 21.9 µM; GI50 (SNB-19 CNS): 5.81 µM; TGI (SNB-19 CNS): > 100 µM; GI50 (UO-31 renal): 1.48 µM; TGI (UO-31 renal): > 100 µM
